Source: patent US10160954B2, “Engineered physical alignment of stem cell-derived cardiomyocytes” (The Regents of the University of California, priority 2013, dated 2018)

Test system: hESC-VCMs
Experiment: Effect of isoproterenol on control and P5-aligned hESC-VCM preparations (optical mapping)
Type: cell-based, human
Details: for CV of control preparations: steady-state pacing at 1 Hz
Procedure: HESC-VCM preparations were loaded with 4 μM di-4-ANEPPS (Invitrogen, USA) for 20 min at room temperature in Tyrode's solution, consisting of (mM) 140 NaCl, 5 KCl, 1 MgCl2, 1 CaCl2, 10 glucose, and 10 HEPES at pH 7.4, then washed twice before fluorescence imaging using a halogen light filtered by a 515±35 nm band-pass excitation filter and a 590 nm high-pass emission filter. High-resolution optical mapping of AP and conduction properties was performed using a MiCam Ultima (SciMedia, Calif., USA) with a 1X objective and a 1X condensing lens to yield a 10×10 mm^2 field of view. A custom heat plate was introduced to maintain the perfused Tyrode's solution at 37° C. Data were collected at a sampling rate of 200 Hz and analyzed using BV_Ana software (SciMedia). Isoproterenol (Sigma-Aldrich, N.Y., USA) was applied by perfusion at the concentrations indicated.
Electrophysiological protocols were generated using a programmable stimulator (Master8, AMPI, Israel) with the stimuli delivered via a unipolar point-stimulation electrode (1.5× threshold, 10 ms duration) placed perpendicular to the preparation surface. […] The frequency was increased every minute in 0.1-Hz increments with a 5-sec pause.
Mapping was performed during the last 5-10 seconds of each frequency. […] Programmed electrical stimulation, Standard (S1-S2) programmed electrical stimulation (PES) protocol was introduced to study the electrical restitution curve (ERC) of hESC-VCMs. A premature extra-stimulus (S2) was delivered after a train of eight S1 stimuli at a basic cycle length (BCL) of 650 ms. S1-S2 interval was initiated at 600 ms and consecutively shortened in steps of 20 ms until capture has failed. […] There was a pause of 10 s after each S2. The entire stimulation protocol was performed within 30 minutes after di-4-ANEPPS staining.

[1] = P5-aligned preparations, 0.5 μM, n=3

For CC(C)NCC(O)c1ccc(O)c(O)c1 (stereo not shown) [isoproterenol], which “CV of control preparations” value (0.1 μM isoproterenol, n=3) is on record?
The value was 6.3 ± 1.4 cm/s.

And the “CV of control preparations” value (0.5 μM isoproterenol, n=3)?
Its value is 7.6 ± 1.1 cm/s.

And the “CV of control preparations” value (1.0 μM isoproterenol, n=3)?
Its value is 8.1 ± 0.6 cm/s.

And the “depolarization (upstroke) velocity” value (FIG. 6, hESC-VCMs)?
The value was “increasing”.

What about the AP duration (FIG. 6F, hESC-VCMs) of the same compound?
Its AP duration is “reduces”.

What about the “sustained functional reentrant arrhythmias” value (P5-aligned preparations, 0.5 μM, n=2) of the same compound?
The value was “no sustained functional reentrant arrhythmias could be observed”.

And the L-CV after isoproterenol [1]?
Its L-CV after isoproterenol is 7.76 cm/s.

And the T-CV after isoproterenol [1]?
The T-CV after isoproterenol was 4.91 cm/s.

What about the “AR after isoproterenol application” value (P5-aligned preparations, n=2) of the same compound?
The value was 1.76.

What about the “control preparations with spontaneous spiral waves (sustained functional reentrant arrhythmias)” value (control substrates, 2 of 3 preparations, 0.5 μM per FIG. 6C) of the same compound?
The value was 66%.
